How the values were obtained:
[1] = target: Mitogen-activated protein kinase 9 (Homo sapiens) (UniProt P45984); experiment: Inhibition of recombinant human His-tagged full length JNK2 expressed in baculovirus expression system using Ser/Thr 04 as substrate at 0.1 uM incubated for 60 mins by Z'-lyte assay relative to control
[2] = target: Protein kinase C beta type (Homo sapiens) (UniProt P05771); experiment: Inhibition of recombinant human His-tagged full length PKCbeta1 expressed in insect expression system using Ser/Thr 07 as substrate at 0.1 uM incubated for 60 mins by Z'-lyte assay relative to control
[3] = target: Ephrin type-A receptor 4 (Homo sapiens) (UniProt P54764); experiment: Inhibition of recombinant human GST-tagged EPHA4 (616 to 887 residues) expressed in baculovirus expression system using Tyr 02 as substrate at 0.1 uM incubated for 60 mins by Z'-Lyte assay relative to control
Sequence of Ephrin type-A receptor 4 (Homo sapiens) (P54764 whole entry, the tested form may be a part): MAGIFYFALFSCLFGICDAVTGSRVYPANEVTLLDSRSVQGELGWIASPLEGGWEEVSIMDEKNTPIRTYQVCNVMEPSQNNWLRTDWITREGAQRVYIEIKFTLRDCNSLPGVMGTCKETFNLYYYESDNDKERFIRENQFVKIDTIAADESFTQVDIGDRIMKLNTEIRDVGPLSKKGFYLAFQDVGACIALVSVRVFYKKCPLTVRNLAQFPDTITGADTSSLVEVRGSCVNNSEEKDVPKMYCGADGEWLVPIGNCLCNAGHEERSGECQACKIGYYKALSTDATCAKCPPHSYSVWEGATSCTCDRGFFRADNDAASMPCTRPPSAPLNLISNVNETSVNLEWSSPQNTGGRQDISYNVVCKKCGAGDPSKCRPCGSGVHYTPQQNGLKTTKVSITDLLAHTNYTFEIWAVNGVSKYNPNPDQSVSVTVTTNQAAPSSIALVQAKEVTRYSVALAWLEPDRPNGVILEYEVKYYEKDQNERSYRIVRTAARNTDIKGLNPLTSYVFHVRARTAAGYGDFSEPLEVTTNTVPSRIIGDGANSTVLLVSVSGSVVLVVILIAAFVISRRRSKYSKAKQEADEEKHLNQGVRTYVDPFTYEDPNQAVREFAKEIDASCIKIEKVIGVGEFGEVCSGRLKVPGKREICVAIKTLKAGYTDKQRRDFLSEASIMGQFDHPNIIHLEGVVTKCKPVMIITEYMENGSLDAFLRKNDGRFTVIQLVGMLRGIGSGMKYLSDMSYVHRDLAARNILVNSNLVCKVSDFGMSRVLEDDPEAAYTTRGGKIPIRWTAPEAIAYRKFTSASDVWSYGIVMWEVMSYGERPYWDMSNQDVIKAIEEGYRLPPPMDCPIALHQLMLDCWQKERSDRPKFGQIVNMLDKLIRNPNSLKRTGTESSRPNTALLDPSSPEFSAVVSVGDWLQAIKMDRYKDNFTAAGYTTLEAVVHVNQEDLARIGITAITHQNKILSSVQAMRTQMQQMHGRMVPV

[4] = target: Epidermal growth factor receptor (Homo sapiens) (UniProt P00533); experiment: Inhibition of recombinant human GST-tagged EGFR (668 to 1210 residues) expressed in baculovirus expression system using Tyr 4 as substrate at 0.1 uM incubated for 60 mins by Z'-Lyte assay relative to control
Sequence of Epidermal growth factor receptor (Homo sapiens) (P00533 whole entry, the tested form may be a part): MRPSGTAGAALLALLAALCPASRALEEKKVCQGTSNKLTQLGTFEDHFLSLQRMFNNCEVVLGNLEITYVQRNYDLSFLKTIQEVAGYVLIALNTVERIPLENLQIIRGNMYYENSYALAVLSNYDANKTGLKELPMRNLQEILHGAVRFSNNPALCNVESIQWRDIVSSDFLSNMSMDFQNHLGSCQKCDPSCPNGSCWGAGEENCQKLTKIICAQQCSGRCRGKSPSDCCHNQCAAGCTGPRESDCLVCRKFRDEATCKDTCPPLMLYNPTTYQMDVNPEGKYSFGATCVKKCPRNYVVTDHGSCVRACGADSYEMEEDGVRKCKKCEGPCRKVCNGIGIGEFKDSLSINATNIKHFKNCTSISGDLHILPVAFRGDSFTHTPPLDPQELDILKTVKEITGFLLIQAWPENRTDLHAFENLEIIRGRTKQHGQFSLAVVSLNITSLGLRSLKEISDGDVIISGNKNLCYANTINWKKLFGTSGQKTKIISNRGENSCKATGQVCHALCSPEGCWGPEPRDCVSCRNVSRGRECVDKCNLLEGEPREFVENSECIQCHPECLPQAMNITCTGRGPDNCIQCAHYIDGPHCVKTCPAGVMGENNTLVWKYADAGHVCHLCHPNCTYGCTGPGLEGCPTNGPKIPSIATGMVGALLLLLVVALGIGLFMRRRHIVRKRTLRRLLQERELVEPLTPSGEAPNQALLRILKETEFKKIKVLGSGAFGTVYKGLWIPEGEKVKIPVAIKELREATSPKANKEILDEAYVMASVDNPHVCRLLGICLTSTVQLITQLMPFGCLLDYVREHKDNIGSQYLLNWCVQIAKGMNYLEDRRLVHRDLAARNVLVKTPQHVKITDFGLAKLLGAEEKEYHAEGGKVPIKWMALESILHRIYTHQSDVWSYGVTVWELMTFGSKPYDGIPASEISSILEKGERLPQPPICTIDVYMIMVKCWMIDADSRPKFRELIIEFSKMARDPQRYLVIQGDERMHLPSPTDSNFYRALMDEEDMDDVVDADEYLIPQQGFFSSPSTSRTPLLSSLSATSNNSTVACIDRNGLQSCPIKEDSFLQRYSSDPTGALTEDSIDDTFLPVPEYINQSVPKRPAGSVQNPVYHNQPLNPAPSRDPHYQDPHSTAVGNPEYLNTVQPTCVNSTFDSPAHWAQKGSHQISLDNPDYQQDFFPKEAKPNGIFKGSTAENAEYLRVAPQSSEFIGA

[5] = target: Cyclin-dependent kinase 1/cyclin B1 (Homo sapiens) (UniProt P06493+P14635); experiment: Inhibition of recombinant human His-tagged full length CDK1/Cyclin B expressed in baculovirus expression system using Ser/Thr 18 as substrate at 0.1 uM incubated for 60 mins by Z'-Lyte assay relative to control
Sequence of Cyclin-dependent kinase 1/cyclin B1 (Homo sapiens) (P06493 whole entry, looked up, the tested form may be a part): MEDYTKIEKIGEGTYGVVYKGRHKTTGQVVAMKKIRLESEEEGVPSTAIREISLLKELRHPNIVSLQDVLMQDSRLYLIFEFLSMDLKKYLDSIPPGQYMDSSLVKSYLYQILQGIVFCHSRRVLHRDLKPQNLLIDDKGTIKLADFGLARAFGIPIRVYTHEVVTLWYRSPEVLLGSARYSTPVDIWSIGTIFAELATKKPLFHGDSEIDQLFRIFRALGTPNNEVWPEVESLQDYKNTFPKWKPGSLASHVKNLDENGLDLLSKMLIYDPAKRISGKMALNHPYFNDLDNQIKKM
Sequence of Cyclin-dependent kinase 1/cyclin B1 (Homo sapiens) (P14635 whole entry, looked up, the tested form may be a part): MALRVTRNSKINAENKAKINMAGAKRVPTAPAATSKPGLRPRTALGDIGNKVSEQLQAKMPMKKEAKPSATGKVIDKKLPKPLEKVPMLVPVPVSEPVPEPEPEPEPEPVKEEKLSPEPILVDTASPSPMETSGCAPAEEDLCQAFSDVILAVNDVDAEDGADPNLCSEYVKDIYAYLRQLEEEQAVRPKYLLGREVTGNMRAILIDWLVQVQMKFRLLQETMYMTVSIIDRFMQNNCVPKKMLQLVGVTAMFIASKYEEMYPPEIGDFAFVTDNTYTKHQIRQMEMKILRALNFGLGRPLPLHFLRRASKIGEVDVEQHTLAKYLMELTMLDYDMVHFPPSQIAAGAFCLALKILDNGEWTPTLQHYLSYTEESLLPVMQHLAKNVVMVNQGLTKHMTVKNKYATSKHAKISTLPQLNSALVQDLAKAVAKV

[6] = test system: RAF proto-oncogene serine/threonine-protein kinase (Homo sapiens), P04049 [Y340D,Y341D]; experiment: Inhibition of recombinant human GST-tagged RAF1 Y340D/Y341D double mutant (306 to 648 residues) expressed in baculovirus expression system using Ser/Thr 03 as substrate at 0.1 uM incubated for 60 mins by Z'-Lyte assay relative to control
[7] = target: Focal adhesion kinase 1 (Homo sapiens) (UniProt Q05397); experiment: Inhibition of recombinant human GST-tagged full length FAK expressed in baculovirus expression system using Tyr 07 as substrate at 0.1 uM incubated for 60 mins by Z'-Lyte assay relative to control
Sequence of Focal adhesion kinase 1 (Homo sapiens) (Q05397 2-1052 limits assumed): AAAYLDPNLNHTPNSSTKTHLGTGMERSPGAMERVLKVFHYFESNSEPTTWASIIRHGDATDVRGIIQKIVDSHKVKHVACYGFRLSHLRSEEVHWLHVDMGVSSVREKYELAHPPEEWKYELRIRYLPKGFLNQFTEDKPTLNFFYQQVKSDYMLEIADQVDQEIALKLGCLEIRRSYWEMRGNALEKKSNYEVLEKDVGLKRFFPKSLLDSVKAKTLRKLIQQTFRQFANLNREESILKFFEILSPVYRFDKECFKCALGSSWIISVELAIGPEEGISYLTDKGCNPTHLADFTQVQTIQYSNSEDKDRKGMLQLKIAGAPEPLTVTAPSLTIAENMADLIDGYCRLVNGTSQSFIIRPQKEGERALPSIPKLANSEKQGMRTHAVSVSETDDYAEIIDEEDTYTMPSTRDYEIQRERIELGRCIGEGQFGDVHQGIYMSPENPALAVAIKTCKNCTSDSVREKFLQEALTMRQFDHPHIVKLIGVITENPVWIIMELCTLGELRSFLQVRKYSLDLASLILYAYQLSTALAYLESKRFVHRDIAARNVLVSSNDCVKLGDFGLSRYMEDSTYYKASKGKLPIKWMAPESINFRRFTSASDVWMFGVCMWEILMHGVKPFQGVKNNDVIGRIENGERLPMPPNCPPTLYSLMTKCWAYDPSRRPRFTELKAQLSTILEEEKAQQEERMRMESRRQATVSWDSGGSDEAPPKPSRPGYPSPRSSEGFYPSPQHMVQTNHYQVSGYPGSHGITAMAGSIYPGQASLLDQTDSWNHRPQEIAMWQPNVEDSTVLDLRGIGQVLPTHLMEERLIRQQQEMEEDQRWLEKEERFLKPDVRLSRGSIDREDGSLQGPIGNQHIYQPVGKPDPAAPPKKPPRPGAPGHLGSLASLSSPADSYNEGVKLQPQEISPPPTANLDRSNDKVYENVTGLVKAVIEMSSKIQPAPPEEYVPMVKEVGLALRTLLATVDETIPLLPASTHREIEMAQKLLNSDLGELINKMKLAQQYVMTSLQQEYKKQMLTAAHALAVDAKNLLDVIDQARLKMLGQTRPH

[8] = target: Insulin-like growth factor 1 receptor (Homo sapiens) (UniProt P08069); experiment: Inhibition of recombinant human His-tagged IGF1R (960 to 1397 residues) expressed in baculovirus expression system using Tyr 01 as substrate at 0.1 uM incubated for 60 mins by Z'-Lyte assay relative to control
[9] = target: Tyrosine-protein kinase CSK (Homo sapiens) (UniProt P41240); experiment: Inhibition of recombinant human GST-tagged full length CSK expressed in Escherichia coli expression system using Tyr 02 as substrate at 0.1 uM incubated for 60 mins by Z'-Lyte assay relative to control
Sequence of Tyrosine-protein kinase CSK (Homo sapiens) (P41240 2-450 limits assumed): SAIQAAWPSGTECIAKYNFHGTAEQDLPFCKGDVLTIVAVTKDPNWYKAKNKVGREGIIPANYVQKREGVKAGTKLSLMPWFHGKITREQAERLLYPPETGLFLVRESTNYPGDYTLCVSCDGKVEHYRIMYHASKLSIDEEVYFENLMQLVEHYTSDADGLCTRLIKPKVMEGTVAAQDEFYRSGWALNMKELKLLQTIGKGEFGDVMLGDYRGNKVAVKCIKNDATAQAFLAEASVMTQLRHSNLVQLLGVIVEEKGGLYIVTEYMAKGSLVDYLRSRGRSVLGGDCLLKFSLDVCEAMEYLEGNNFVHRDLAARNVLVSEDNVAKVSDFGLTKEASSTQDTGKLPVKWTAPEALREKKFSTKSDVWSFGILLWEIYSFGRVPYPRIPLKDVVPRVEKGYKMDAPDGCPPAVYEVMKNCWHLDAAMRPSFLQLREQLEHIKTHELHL

[10] = target: Tyrosine-protein kinase JAK1 (Homo sapiens, UniProt P23458); details: dose 0.1 µM, time 60.0 min
[11] = target: Protein kinase C beta type (Homo sapiens) (UniProt P05771); experiment: Inhibition of recombinant human GST-tagged full length PKCbeta2 expressed in insect expression system using Ser/Thr 07 as substrate at 0.1 uM incubated for 60 mins by Z'-lyte assay relative to control
[12] = target: Janus Kinase (JAK) (Homo sapiens, UniProt P52333+P23458+O60674+P29597); details: beas-2b
Description: Inhibition of JAK in human BEAS-2B cells assessed as reduction in IL13-induced STAT6 phosphorylation incubated for 1 hr followed by IL13 addition and measured after 15 mins by immunofluorescence assay

[13] = target: T1, Beta-adrenergic receptor kinase 1 (Homo sapiens) (UniProt P25098); experiment: Inhibition of recombinant human His-tagged full length GRK2 expressed in baculovirus expression system using Ser/Thr 16 as substrate at 0.1 uM incubated for 60 mins by Z'-Lyte assay relative to control
T1 sequence (whole entry): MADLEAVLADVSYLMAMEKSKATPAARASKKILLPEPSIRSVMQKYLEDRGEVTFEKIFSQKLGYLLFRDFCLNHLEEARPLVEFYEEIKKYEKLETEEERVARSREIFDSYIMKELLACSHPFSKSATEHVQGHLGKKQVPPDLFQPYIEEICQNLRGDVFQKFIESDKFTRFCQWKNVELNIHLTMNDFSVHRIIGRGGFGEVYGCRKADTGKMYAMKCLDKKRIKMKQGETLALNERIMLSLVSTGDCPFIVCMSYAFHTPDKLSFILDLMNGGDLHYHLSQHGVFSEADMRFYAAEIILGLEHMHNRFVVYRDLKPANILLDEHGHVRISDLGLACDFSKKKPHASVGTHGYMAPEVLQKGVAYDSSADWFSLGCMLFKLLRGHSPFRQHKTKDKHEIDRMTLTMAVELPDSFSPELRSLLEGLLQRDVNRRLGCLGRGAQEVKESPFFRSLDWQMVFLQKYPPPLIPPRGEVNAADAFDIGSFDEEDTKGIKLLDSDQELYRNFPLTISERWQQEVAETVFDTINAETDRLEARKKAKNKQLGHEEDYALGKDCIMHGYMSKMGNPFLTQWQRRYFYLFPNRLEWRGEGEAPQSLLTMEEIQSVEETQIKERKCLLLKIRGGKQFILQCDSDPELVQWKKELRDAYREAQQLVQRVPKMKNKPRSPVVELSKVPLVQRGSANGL

[14] = target: T2, cGMP-dependent protein kinase 2 (Homo sapiens) (UniProt Q13237); experiment: Inhibition of recombinant human GST-tagged full length PKG2 expressed in baculovirus expression system using Ser/Thr 01 as substrate at 0.1 uM incubated for 60 mins by Z'-Lyte assay relative to control
T2 sequence (whole entry): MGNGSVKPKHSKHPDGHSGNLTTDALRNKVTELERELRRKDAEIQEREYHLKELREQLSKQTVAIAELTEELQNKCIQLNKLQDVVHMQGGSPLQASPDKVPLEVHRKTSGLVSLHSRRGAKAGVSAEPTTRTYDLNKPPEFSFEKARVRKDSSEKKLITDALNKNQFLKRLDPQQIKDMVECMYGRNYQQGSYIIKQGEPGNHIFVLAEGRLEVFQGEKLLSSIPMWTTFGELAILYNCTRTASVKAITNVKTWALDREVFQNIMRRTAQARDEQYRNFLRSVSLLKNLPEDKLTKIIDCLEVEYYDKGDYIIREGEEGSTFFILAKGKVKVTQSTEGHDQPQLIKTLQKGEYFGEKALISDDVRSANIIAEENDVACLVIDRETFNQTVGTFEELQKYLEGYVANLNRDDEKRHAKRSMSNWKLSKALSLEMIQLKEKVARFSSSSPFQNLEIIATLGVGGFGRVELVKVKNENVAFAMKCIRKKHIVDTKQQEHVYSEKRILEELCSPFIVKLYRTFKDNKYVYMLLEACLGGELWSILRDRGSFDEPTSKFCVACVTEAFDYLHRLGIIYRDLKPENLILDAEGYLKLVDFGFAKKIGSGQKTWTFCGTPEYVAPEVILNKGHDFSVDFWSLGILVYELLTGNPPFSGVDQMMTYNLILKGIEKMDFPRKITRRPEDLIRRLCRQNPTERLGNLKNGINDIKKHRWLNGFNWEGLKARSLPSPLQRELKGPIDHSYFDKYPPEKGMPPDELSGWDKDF

Sequence of Mitogen-activated protein kinase 9 (Homo sapiens) (P45984 whole entry, looked up): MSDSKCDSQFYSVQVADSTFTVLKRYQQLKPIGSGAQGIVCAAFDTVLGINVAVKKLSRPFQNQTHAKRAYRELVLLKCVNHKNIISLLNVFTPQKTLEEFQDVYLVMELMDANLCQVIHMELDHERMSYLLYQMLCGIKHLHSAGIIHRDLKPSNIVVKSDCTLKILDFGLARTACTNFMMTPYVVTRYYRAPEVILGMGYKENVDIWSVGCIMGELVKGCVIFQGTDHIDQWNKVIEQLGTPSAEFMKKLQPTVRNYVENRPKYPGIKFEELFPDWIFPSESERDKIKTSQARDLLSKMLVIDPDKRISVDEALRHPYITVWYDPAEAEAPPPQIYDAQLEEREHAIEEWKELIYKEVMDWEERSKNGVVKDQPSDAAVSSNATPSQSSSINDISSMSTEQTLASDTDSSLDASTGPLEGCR

`O=C(Nc1c[nH]nc1-c1cc2ccccc2cc1OC(F)F)c1cnn2cccnc12` showed an inhibition [1] of 0%, an inhibition [2] of 13% and an inhibition [3] of 3%. It also gave an inhibition [4] of 6%, an inhibition [5] of 27% and an inhibition [6] of 7%. The inhibition [7] was 20%, the inhibition [8] was 5% and the inhibition [9] was 3%. The inhibition [10] was 96%, the inhibition [11] was 17% and the IC50 [12] was 6.4 nM. For the same compound, the inhibition [13] was 0% and the inhibition [14] was 6%.

With `O=C(Nc1c[nH]nc1-c1cc(Cl)ccc1OC(F)F)c1cnn2cccnc12` the inhibition [1] was 16%, the inhibition [2] was 24% and the inhibition [3] was -4%. The inhibition [4] was 0%, the inhibition [5] was 53% and the inhibition [6] was 9%. It also gave an inhibition [7] of 14%, an inhibition [8] of 9% and an inhibition [9] of -2%. For the same compound, the inhibition [10] was 100%, the inhibition [11] was 21% and the IC50 [12] was 5.2 nM. It also gave an inhibition [13] of 3% and an inhibition [14] of 2%.

For `Cn1cc(NC(=O)c2cnn3cccnc23)c(-c2cc(Cl)ccc2OC(F)F)n1`, the inhibition [1] was -2%, the inhibition [2] was 2% and the inhibition [3] was 4%. It also gave an inhibition [4] of 2%, an inhibition [5] of 4% and an inhibition [6] of 3%. It also gave an inhibition [7] of 15%, an inhibition [8] of 8% and an inhibition [9] of 2%. For the same compound, the inhibition [10] was 96%, the inhibition [11] was 12% and the IC50 [12] was 4.7 nM. The inhibition [13] was 8% and the inhibition [14] was 6%.

— ChEMBL document CHEMBL4665643 (Bioorg Med Chem Lett, 2019)
